Test results: publication PMC9866366 (Pharmaceutics, 2023)
pIC50: −log10 of the molar value. Square brackets hold non-standard residues; d marks the D form. Peptide text beside a SMILES is read from it. * marks the point of attachment. Alaψ(CH2NMeCH2CH2OH) = C[C@@H](CN(C)CCO)N*; Decanoyl(2R-Me) = CCCCCCCC[C@@H](C)C(=O)*; Cha = N[C@@H](CC1CCCCC1)C(=O)O; Aib = CC(C)(N)C(=O)O

Assays:
BxPC-3 cells [1] = assay: Initial cytotoxicity assay (PrestoBlue and CyQUANT Direct Confirmation Assay), 25 mM glucose; format: cell-based, human; details: 3-day (72 h) incubation, RPMI-1640 with 25 mM glucose, up to highest concentration tested of 1 µM, both viability assays
Description: The CyQUANT™ Direct Cell Proliferation Assay was subsequently performed by mixing the CyQUANT™ Direct nucleic acid stain, CyQUANT™ Direct background suppressor I, and PBS (pH 7.4) as per the vendor instructions, then adding 100 µL of this mixture into each well. The plate was returned into the incubator for a further 1 h, and the endpoint fluorescence bottom-read at the Ex/Em wavelength of 485/538 nm on the SpectraMax iD3 plate reader. Blank wells (medium only) and two negative controls—(1) cells + medium, (2) cells + medium + 0.3% v/v DMSO (equivalent to 1 µM peptide)—were set up in the plate for each experiment.

PANC-1 cells [2] = details: 24 h exposure, medium with or without 5 mM glucose, up to 9 µM
Description: (§1) Cells were seeded at a density of 25,000 cells/well (BxPC-3) and 30,000 cells/well (PANC-1) in Nunc MicroWell 96-Well Black Optical-Bottom Plates with Polymer Base (total volume: 100 µL). Cells were first incubated overnight at 37 °C, 5% CO2 to permit adherence, after which the medium in each well was aspirated, briefly washed once with 100 µL/well of PBS (pH 7.4) and replaced with 100 µL of either RPMI 1640 (BxPC-3, #11879020) or DMEM (PANC-1, #11966025) supplemented with or without 5 mM glucose to create the ‘normal glucose’ and ‘low glucose’ media, respectively. This 5 mM glucose concentration was selected to reflect the physiological concentration of glucose in plasma. Each well was then exposed to the peptides in duplicate at a concentration range of 50.8 pM to 1 µM (BxPC-3) or 457 pM to 9 µM (PANC-1) for 24 h (threefold serial dilution in the corresponding ‘normal glucose’ or ‘low glucose’ media, ten steps). Endpoint fluorescence was quantified as described above.
(§2) Blank correction (wells containing medium only) was first performed on the raw fluorescence–concentration data from the plate reader. Cell viability was then calculated as a percentage by normalizing to the fluorescence of the wells containing the lowest drug concentration (50.8 pM for BxPC-3, 457 pM for PANC-1). The resulting data from three independent experiments (each in technical duplicate) was then plotted on GraphPad Prism 9 and analyzed using the built-in ‘[Inhibitor] vs. response—Variable slope (four parameters)’ equation.

BxPC-3 cells [3] = details: 24 h exposure, medium with or without 5 mM glucose, up to 1 µM
Description: as §1, §2

PANC-1 cells [4] = assay: PrestoBlue cell viability assay, comparative cytotoxicity assay under 'low glucose'; format: cell-based, human; details: 24 h exposure
From the text: (§3) Endpoint fluorescence was quantified as described above.

BxPC-3 cells [5] = assay: as above; format: cell-based, human; details: 24 h exposure
From the text: as §3

PANC-1 cells [6] = assay: CyQUANT Direct cell proliferation assay, comparative cytotoxicity assay under 'low glucose'; format: cell-based, human; details: 24 h exposure
From the text: as §3

BxPC-3 cells [7] = assay: as above; format: cell-based, human; details: 24 h exposure
From the text: as §3

[8] = tested on: DU-145 human prostate cancer cells; details: coculture model with prostate stromal cells (PrSC); cited from earlier work
From the text: (§4) Over the last decade, research in our group has focused on the synthesis and biological evaluation of aminolipopeptides as new generation anticancer therapeutics. They are structurally defined by the α,α-dialkylated amino acid 2-aminoisobutyric acid (Aib) and an acylated N-terminus. A subset of this family, containing the non-natural building block 2-amino-6-hydroxy-4-methyl-8-oxodecanoic acid (AHMOD), has provided two promising leads in leucinostatin A (1) and culicinin D (2).

PK-8 = details: MTT assay; only when cultured under minimal glucose in the growth medium; cited from earlier work
From the text: (§5) Intriguingly, there exists a precedence for this observation: the recent discovery of the leucinostatin Y by Kawada’s group was also reported alongside a comparative […] (MTT) assay against the parent peptide leucinostatin A (1) on the human PDAC cell lines PANC-1, BxPC-3, PSN-1, and PK-8 [21]. […] On this basis, we opted to re-evaluate the cytotoxicity of both trichoderins (3) and (4) against BxPC-3 and ...

PSN-1 = details: MTT assay; only when cultured under minimal glucose in the growth medium; cited from earlier work
From the text: as §5

PANC-1 = details: MTT assay; only when cultured under minimal glucose in the growth medium; cited from earlier work
From the text: as §5

BxPC-3 = details: MTT assay; only when cultured under minimal glucose in the growth medium; cited from earlier work
From the text: as §5

[9] = tested on: MDA-MB-468 human breast cancer cells; details: via inhibition of the mTOR signaling pathway; cited from earlier work
From the text: as §4

[10] = 'low glucose' DMEM (no glucose added), 457 pM to 9 µM, three independent experiments each in technical duplicate
[11] = 'low glucose', area under viability-concentration curve, baseline y = 0, three independent experiments in duplicate
[12] = 'low glucose', response (percent viability) at highest concentration 9 µM, three independent experiments in duplicate
[13] = 'low glucose' RPMI 1640 (no glucose added), 50.8 pM to 1 µM, three independent experiments each in technical duplicate
[14] = 'low glucose', response (percent viability) at highest concentration 1 µM, three independent experiments in duplicate

## CCCCCCCC[C@@H](C)C(=O)N1CCC[C@H]1C(=O)N[C@@H](CC1CCCCC1)C(=O)NC(C)(C)C(=O)NC(C)(C)C(=O)N[C@H](C(=O)N[C@H](C(=O)NC(C)(C)C(=O)NC(C)(C)C(=O)N[C@@H](C)CN(C)CCO)C(C)C)[C@@H](C)CC [(4)] ({Decanoyl(2R-Me)}-P[Cha][Aib][Aib]IV[Aib][Aib]-{Alaψ(CH2NMeCH2CH2OH)})
BxPC-3 cells [1]
  Inhibition of proliferation of BxPC-3 cells (in words): only partially inhibited the proliferation
PANC-1 cells [2]
  Cytotoxicity against PANC-1 under 'low glucose' vs 'normal glucose' (in words): selective toxicity under the ‘low glucose’ condition
BxPC-3 cells [3]
  Cytotoxicity against BxPC-3 under 'low glucose' vs 'normal glucose' (in words): selective toxicity under the ‘low glucose’ condition
PANC-1 cells [4]; [10]
  pIC50: 6.30
PANC-1 cells [4]; [11]
  AUC, PrestoBlue, PANC-1: 23.1 ×10^−5
PANC-1 cells [4]; [12]
  Emax @ 9 µM, PrestoBlue, PANC-1: 2.3%
BxPC-3 cells [5]; [13]
  pIC50: 6.40
BxPC-3 cells [5]; [11]
  AUC, PrestoBlue, BxPC-3: 5.1 ×10^−5
BxPC-3 cells [5]; [14]
  Emax @ 1 µM, PrestoBlue, BxPC-3: 1.7%
PANC-1 cells [6]; [10]
  pIC50: 5.89
PANC-1 cells [6]; [11]
  AUC, CyQUANT Direct, PANC-1: 39.6 ×10^−5
PANC-1 cells [6]; [12]
  Emax @ 9 µM, CyQUANT Direct, PANC-1: 29.2%
BxPC-3 cells [7]; [13]
  pIC50: 6.40
BxPC-3 cells [7]; [11]
  AUC, CyQUANT Direct, BxPC-3: 5.4 ×10^−5
BxPC-3 cells [7]; [14]
  Emax @ 1 µM, CyQUANT Direct, BxPC-3: 21.0%

## leucinostatin A [(1)]
[8]
  Cytotoxicity against DU-145 (in words): cytotoxic
PK-8
  Cytotoxicity against PK-8 (in words): selectively cytotoxic
PSN-1
  Cytotoxicity against PSN-1 (in words): selectively cytotoxic
PANC-1
  Cytotoxicity against PANC-1 (in words): selectively cytotoxic
BxPC-3
  Cytotoxicity against BxPC-3 (in words): selectively cytotoxic

## culicinin D [(2)]
[9]
  Toxicity against MDA-MB-468 (in words): selectively toxic
